From US20080175794A1, “Substituted Pyridazinyl- and Pyrimidinyl-Quinolin-4-Ylamine Analogues” (NEUROGEN CORPORATION, priority 2005, published 2008)

Biological target: T1, human capsaicin receptor (Homo sapiens, UniProt Q8NER1)
T1 construct: expressed in transfected cells
Assay: Calcium mobilization assay, determination of antagonist activity (Example 6)
Format: cell-based
Conditions: Table III; assay provided in Example 6; cells expressing human capsaicin receptor, capsaicin at EC50
Protocol: A cDNA encoding full length human capsaicin receptor (SEQ ID NO:1, 2 or 3 of U.S. Pat. No. 6,482,611) is subcloned in the plasmid pBK-CMV (Stratagene, La Jolla, Calif.) for recombinant expression in mammalian cells.
Human embryonic kidney (HEK293) cells are transfected with the pBK-CMV expression construct encoding the full length human capsaicin receptor using standard methods. The transfected cells are selected over two weeks in media containing G418 (400 μg/ml) to obtain a pool of stably transfected cells. Independent clones are isolated from this pool by limiting dilution to obtain clonal stable cell lines for use in subsequent experiments.
Cells transfected with expression plasmids (as described in Example 4) and thereby expressing human capsaicin receptor are seeded and grown to 70-90% confluency in FALCON black-walled, clear-bottomed 96-well plates (#3904, BECTON-DICKINSON, Franklin Lakes, N.J.). The culture medium is emptied from the 96 well plates and FLUO-3 AM calcium sensitive dye (Molecular Probes, Eugene, Oreg.) is added to each well (dye solution: 1 mg FLUO-3 AM, 440 μL DMSO and 440 μl 20% pluronic acid in DMSO, diluted 1:250 in Krebs-Ringer HEPES (KRH) buffer (25 mM HEPES, […], 0.96 mM NaH2PO4, 1 mM MgSO4, 2 mM CaCl2, 5 mM glucose, 1 mM probenecid, pH 7.4), 50 μl diluted solution per well). Plates are covered with aluminum foil and incubated at 37° C. for 1-2 hours in an environment containing 5% CO2. After the incubation, the dye is emptied from the plates, and the cells are washed once with KRH buffer, and resuspended in KRH buffer.
To measure the ability of a test compound to agonize or antagonize a calcium mobilization response in cells expressing capsaicin receptors to capsaicin or other vanilloid agonist, the EC50 of the agonist capsaicin is first determined. An additional 20 μl of KRH buffer and 1 μl DMSO is added to each well of cells, prepared as described above. 100 μl capsaicin in KRH buffer is automatically transferred by the FLIPR instrument to each well. Capsaicin-induced calcium mobilization is monitored using either FLUOROSKAN ASCENT (Labsystems; Franklin, Mass.) or FLIPR (fluorometric imaging plate reader system; Molecular Devices, Sunnyvale, Calif.) instruments. Data obtained between 30 and 60 seconds after agonist application are used to generate an 8-point concentration response curve, with final capsaicin concentrations of 1 nM to 3 μM. KALEIDAGRAPH software (Synergy Software, Reading, Pa.) is used to fit the data to the equation: […]
Test compounds are dissolved in DMSO, diluted in 20 μl KRH buffer so that the final concentration of test compounds in the assay well is between […] and 5 μM, and added to cells prepared as described above. The 96 well plates containing prepared cells and test compounds are incubated in the dark at room temperature for 0.5 to 6 hours. It is important that the incubation not continue beyond 6 hours. Just prior to determining the fluorescence response, 100 μl capsaicin in KRH buffer at twice the EC50 concentration determined as described above is automatically added by the FLIPR instrument to each well of the 96 well plate for a final sample volume of 200 μl and a final capsaicin concentration equal to the EC50. The final concentration of test compounds in the assay wells is between 1 μM and 5 μM. […] The concentration of antagonist required to provide a 50% decrease, relative to the response observed in the presence of capsaicin and without antagonist, is the IC50 for the antagonist, and is preferably below 1 micromolar, 100 nanomolar, 10 nanomolar or 1 nanomolar.

T1 sequence (Q8NER1 whole entry): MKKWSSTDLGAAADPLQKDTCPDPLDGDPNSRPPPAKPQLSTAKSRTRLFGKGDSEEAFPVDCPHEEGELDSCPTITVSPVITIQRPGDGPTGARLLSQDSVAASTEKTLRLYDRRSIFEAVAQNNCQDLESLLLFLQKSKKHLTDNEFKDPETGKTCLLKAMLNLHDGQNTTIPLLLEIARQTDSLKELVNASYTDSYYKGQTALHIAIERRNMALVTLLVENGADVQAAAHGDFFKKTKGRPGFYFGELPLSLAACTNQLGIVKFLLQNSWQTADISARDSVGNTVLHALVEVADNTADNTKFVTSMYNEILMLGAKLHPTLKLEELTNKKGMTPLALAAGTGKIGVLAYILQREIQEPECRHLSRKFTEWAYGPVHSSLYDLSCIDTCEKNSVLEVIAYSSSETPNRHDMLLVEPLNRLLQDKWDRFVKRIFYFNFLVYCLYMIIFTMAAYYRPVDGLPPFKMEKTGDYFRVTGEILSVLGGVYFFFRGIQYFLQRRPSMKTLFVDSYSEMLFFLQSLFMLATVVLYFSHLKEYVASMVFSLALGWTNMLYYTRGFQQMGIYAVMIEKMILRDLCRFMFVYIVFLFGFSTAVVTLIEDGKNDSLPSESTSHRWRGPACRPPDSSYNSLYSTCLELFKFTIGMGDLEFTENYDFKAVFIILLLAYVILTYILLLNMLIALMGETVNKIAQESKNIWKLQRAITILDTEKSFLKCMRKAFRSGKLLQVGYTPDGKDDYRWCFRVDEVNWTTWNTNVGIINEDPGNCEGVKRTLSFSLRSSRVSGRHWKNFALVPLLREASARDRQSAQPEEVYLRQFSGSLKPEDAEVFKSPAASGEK

Row | SMILES | IC50 [µM]
1 | CCN(CC)CCNc1cc(C(F)(F)F)c(-c2cnc3c(Nc4ccc(C(F)(F)F)cn4)ccnc3n2)nn1 [Compound 70, N,N-diethyl-N′-[5-(trifluoromethyl)-6-(8-{[5-(trifluoromethyl)pyridin-2-yl]amino}pyrido[2,3-b]pyrazin-3-yl)pyridazin-3-yl]ethane-1,2-diamine] | < 1
2 | CN1CCCC1CCNc1cc(C(F)(F)F)c(-c2cnc3c(Nc4ccc(C(F)(F)F)cn4)ccnc3n2)nn1 (stereo not drawn) [Compound 72, 3-[6-{[2-(1-methylpyrrolidin-2-yl)ethyl]amino}-4-(trifluoromethyl)pyridazin-3-yl]-N-[5-(trifluoromethyl)pyridin-2-yl]pyrido[2,3-b]pyrazin-8-amine] | < 1
3 | CCN(CC)CCCNc1cc(C(F)(F)F)c(-c2cnc3c(Nc4ccc(C(F)(F)F)cn4)ccnc3n2)nn1 [Compound 73, N,N-diethyl-N′-[5-(trifluoromethyl)-6-(8-{[5-(trifluoromethyl)pyridin-2-yl]amino}pyrido[2,3-b]pyrazin-3-yl)pyridazin-3-yl]propane-1,3-diamine] | < 1
4 | CCN1CCCC1CNc1cc(C(F)(F)F)c(-c2cnc3c(Nc4ccc(C(F)(F)F)cn4)ccnc3n2)nn1 (stereo not drawn) [Compound 76, 3-[6-{[(1-ethylpyrrolidin-2-yl)methyl]amino}-4-(trifluoromethyl)pyridazin-3-yl]-N-[5-(trifluoromethyl)pyridin-2-yl]pyrido[2,3-b]pyrazin-8-amine] | < 1
5 | FC(F)(F)c1ccc(Nc2ccnc3nc(-c4nnc(NCCCN5CCCC5)cc4C(F)(F)F)cnc23)nc1 [Compound 77, 3-{6-[(3-pyrrolidin-1-ylpropyl)amino]-4-(trifluoromethyl)pyridazin-3-yl}-N-[5-(trifluoromethyl)pyridin-2-yl]pyrido[2,3-b]pyrazin-8-amine] | < 1
6 | FC(F)(F)c1ccc(Nc2ccnc3nc(-c4nnc(NCc5cccnc5)cc4C(F)(F)F)cnc23)nc1 [Compound 78, 3-{6-[(pyridin-3-ylmethyl)amino]-4-(trifluoromethyl)pyridazin-3-yl}-N-[5-(trifluoromethyl)pyridin-2-yl]pyrido[2,3-b]pyrazin-8-amine] | < 1
7 | FC(F)(F)c1ccc(Nc2ccnc3nc(-c4nnc(NCc5ccccn5)cc4C(F)(F)F)cnc23)nc1 [Compound 80, 3-{6-[(pyridin-2-ylmethyl)amino]-4-(trifluoromethyl)pyridazin-3-yl}-N-[5-(trifluoromethyl)pyridin-2-yl]pyrido[2,3-b]pyrazin-8-amine] | < 1
8 | CN1CCN(CCCNc2cc(C(F)(F)F)c(-c3cnc4c(Nc5ccc(C(F)(F)F)cn5)ccnc4n3)nn2)CC1 [Compound 81, 3-[6-{[3-(4-methylpiperazin-1-yl)propyl]amino}-4-(trifluoromethyl)pyridazin-3-yl]-N-[5-(trifluoromethyl)pyridin-2-yl]pyrido[2,3-b]pyrazin-8-amine] | < 1
9 | CC(CN(C)C)Nc1cc(C(F)(F)F)c(-c2cnc3c(Nc4ccc(C(F)(F)F)cn4)ccnc3n2)nn1 (stereo not drawn) [Compound 82, N1,N1-dimethyl-N2-[5-(trifluoromethyl)-6-(8-{[5-(trifluoromethyl)pyridin-2-yl]amino}pyrido[2,3-b]pyrazin-3-yl)pyridazin-3-yl]propane-1,2-diamine] | < 1
10 | CCCN(CCC)CCNc1cc(C(F)(F)F)c(-c2cnc3c(Nc4ccc(C(F)(F)F)cn4)ccnc3n2)nn1 [Compound 83, N,N-dipropyl-N′-[5-(trifluoromethyl)-6-(8-{[5-(trifluoromethyl)pyridin-2-yl]amino}pyrido[2,3-b]pyrazin-3-yl)pyridazin-3-yl]ethane-1,2-diamine] | < 1
11 | FC(F)(F)c1ccc(Nc2ccnc3nc(-c4nnc(NCCCCN5CCCC5)cc4C(F)(F)F)cnc23)nc1 [Compound 84, 3-{6-[(4-pyrrolidin-1-ylbutyl)amino]-4-(trifluoromethyl)pyridazin-3-yl}-N-[5-(trifluoromethyl)pyridin-2-yl]pyrido[2,3-b]pyrazin-8-amine] | < 1
12 | C=CCN1CCN(c2cc(C(F)(F)F)c(-c3cnc4c(Nc5ccc(C(F)(F)F)cn5)ccnc4n3)nn2)CC1 [Compound 86, 3-[6-(4-allylpiperazin-1-yl)-4-(trifluoromethyl)pyridazin-3-yl]-N-[5-(trifluoromethyl)pyridin-2-yl]pyrido[2,3-b]pyrazin-8-amine] | < 1
13 | CCN1CCN(c2cc(C(F)(F)F)c(-c3cnc4c(Nc5ccc(C(F)(F)F)cn5)ccnc4n3)nn2)CC1 [Compound 88, 3-[6-(4-ethylpiperazin-1-yl)-4-(trifluoromethyl)pyridazin-3-yl]-N-[5-(trifluoromethyl)pyridin-2-yl]pyrido[2,3-b]pyrazin-8-amine] | < 1
14 | CCN(CCN(C)C)c1cc(C(F)(F)F)c(-c2cnc3c(Nc4ccc(C(F)(F)F)cn4)ccnc3n2)nn1 [Compound 94, N-ethyl-N′,N′-dimethyl-N-[5-(trifluoromethyl)-6-(8-{[5-(trifluoromethyl)pyridin-2-yl]amino}pyrido[2,3-b]pyrazin-3-yl)pyridazin-3-yl]ethane-1,2-diamine] | < 1
15 | CN(C)C1CCN(c2cc(C(F)(F)F)c(-c3cnc4c(Nc5ccc(C(F)(F)F)cn5)ccnc4n3)nn2)CC1 [Compound 96, 3-{6-[4-(dimethylamino)piperidin-1-yl]-4-(trifluoromethyl)pyridazin-3-yl}-N-[5-(trifluoromethyl)pyridin-2-yl]pyrido[2,3-b]pyrazin-8-amine] | < 1
16 | CN1CCC(N(C)c2cc(C(F)(F)F)c(-c3cnc4c(Nc5ccc(C(F)(F)F)cn5)ccnc4n3)nn2)C1 (stereo not drawn) [Compound 97, 3-{6-[methyl(1-methylpyrrolidin-3-yl)amino]-4-(trifluoromethyl)pyridazin-3-yl}-N-[5-(trifluoromethyl)pyridin-2-yl]pyrido[2,3-b]pyrazin-8-amine] | < 1
17 | CCN(CC)CCN(CC)c1cc(C(F)(F)F)c(-c2cnc3c(Nc4ccc(C(F)(F)F)cn4)ccnc3n2)nn1 [Compound 99, N,N,N′-triethyl-N′-[5-(trifluoromethyl)-6-(8-{[5-(trifluoromethyl)pyridin-2-yl]amino}pyrido[2,3-b]pyrazin-3-yl)pyridazin-3-yl]ethane-1,2-diamine] | < 1
18 | CNc1cc(C(F)(F)F)c(-c2cnc3c(Nc4ccc(C(F)(F)F)cn4)ccnc3n2)nn1 [Compound 100, 3-[6-(methylamino)-4-(trifluoromethyl)pyridazin-3-yl]-N-[5-(trifluoromethyl)pyridin-2-yl]pyrido[2,3-b]pyrazin-8-amine] | < 1
19 | CCNc1cc(C(F)(F)F)c(-c2cnc3c(Nc4ccc(C(F)(F)F)cn4)ccnc3n2)nn1 [Compound 101, 3-[6-(ethylamino)-4-(trifluoromethyl)pyridazin-3-yl]-N-[5-(trifluoromethyl)pyridin-2-yl]pyrido[2,3-b]pyrazin-8-amine] | < 1
20 | CCCNc1cc(C(F)(F)F)c(-c2cnc3c(Nc4ccc(C(F)(F)F)cn4)ccnc3n2)nn1 [Compound 102, 3-[6-(propylamino)-4-(trifluoromethyl)pyridazin-3-yl]-N-[5-(trifluoromethyl)pyridin-2-yl]pyrido[2,3-b]pyrazin-8-amine] | < 1
21 | FC(F)(F)c1ccc(Nc2ccnc3nc(-c4nnc(NCC5CC5)cc4C(F)(F)F)cnc23)nc1 [Compound 103, 3-{6-[(cyclopropylmethyl)amino]-4-(trifluoromethyl)pyridazin-3-yl}-N-[5-(trifluoromethyl)pyridin-2-yl]pyrido[2,3-b]pyrazin-8-amine] | < 1
